From PMC7988117, “OMN6 a novel bioengineered peptide for the treatment of multidrug resistant Gram negative bacteria” (Scientific Reports, 2021)
≈ marks a conversion by molar mass, not a printed value. Where two headings read alike, the source gives them in different places. Bridge positions count the residues as written; N and C are the ends. Peptide text beside a SMILES is read from it.

Legend:
Proteinase-K = biological target: T1, Proteinase-K (Parengyodontium album, UniProt P06873); test: Peptide stability to Proteinase-K (SDS-PAGE); format: in vitro ADME; settings: 10 µg peptide with 5 or 20 ng Proteinase-K (0.16 or 0.66 µg/mL), 2 h, 37 °C; 15% acrylamide SDS-PAGE, Coomassie stain
T1 construct: purchased Sigma-Aldrich
T1 sequence (P06873 106-384): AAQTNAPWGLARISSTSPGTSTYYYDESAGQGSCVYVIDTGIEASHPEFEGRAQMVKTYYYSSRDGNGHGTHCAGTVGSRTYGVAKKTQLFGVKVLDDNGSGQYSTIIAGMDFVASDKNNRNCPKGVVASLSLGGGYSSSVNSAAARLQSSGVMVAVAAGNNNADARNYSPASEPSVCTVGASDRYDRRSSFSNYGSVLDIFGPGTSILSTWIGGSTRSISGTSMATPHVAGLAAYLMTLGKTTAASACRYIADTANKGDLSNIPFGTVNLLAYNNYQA
Description: 10 µg of synthetic cecropin A (Genscript, Piscataway, NJ, USA), OMN6, or bovine serum albumin (BSA; Sigma-Aldrich, St. Louis, MO, USA) were incubated with 5 or 20 ng Proteinase-K (Sigma-Aldrich; final treatment concentration of 0.16 or 0.66 µg/mL respectively) for 2 h at 37 °C, and separated on a 15% acrylamide gel (Bio-Rad, Hercules, CA, USA) by SDS-PAGE. The gel was then stained with Coomassie dye and excess color was removed over-night.

HEK293T cells = format: cell-based
Description: HEK-293T17 cells (ATCC CRL-1573) were purchased from ATCC and cultured to 80% confluency according to the ATCC culture method, using high-glucose and L-Glutamine Dulbecco's Modified Eagle Medium (DMEM) medium (ATCC catalog number 30-2002) supplemented with 10% fetal bovine serum and 1% Penicillin–Streptomycin solution (all from Biological Industries). For the experiment purposes, 30,000 cells were transferred to a 96-well plate (experiment plate) in a final volume of 100 µL of medium. The experiment plate was incubated at 5% CO2 and 37 °C for approximately 18 h. After 18 h, medium was discarded, and cells were co-incubated with OMN6, Melittin (Sigma-Aldrich) or dimethyl sulfoxide (DMSO; MP Biomedical LLC, Solon, OH, USA) that were prepared in new medium at desired concentrations. The experiment plate was incubated at 5% CO2 and 37 °C for 24 h. Then, glutaraldehyde at a final concentration of 0.5% was added in all wells for 10 min for cell fixation. After washing the plate 3 times with DDW, the experiment plate was dried overnight. Then, cells were washed with 0.1 M Borate buffer (pH = 8.5) for 1 min. 100 µL Methylene Blue diluted in the same Borate buffer was added to all wells for 1 h. Wells were washed with DDW and plate was dried overnight. Color extraction was executed by adding 0.1 M HCl. After an incubation at 37 °C for 1 h, cell survival was determined via absorbance at 620 nm using a microplate reader.

Klebsiella pneumoniae = settings: CLSI broth microdilution, Muller-Hinton broth, 18–24 h, 35 ± 2 °C
Description: (§1) This experiment was conducted by Omnix Medical, by JMI Laboratories (North Liberty, IA, USA) and by Aptuit (Verona) S.r.l. (Italy), an Evotec Company. All studies were performed according to Clinical and Laboratory Standards Institute guidelines[30] for the application of the broth microdilution method. Reference strains from American Type Culture Collection (ATCC) and clinical isolates from the Evotec EvostrAIn and the JMI Laboratories SENTRY surveillance program culture collections (Acinetobacter baumannii: ACC 00445, ACC 00527, ACC 00535, ATCC 17978, ATCC 19606, ATCC BAA-1793, ACC 01076, ACC 01077, NCTC 13420, JMI #1088100 and JMI #1001007; Klebsiella pneumoniae: ATCC 43816 and ATCC BAA-1705; Escherichia coli: ACC 01001 and ATCC 25922; Staphylococcus aureus: ATCC 29213, ATCC BAA-44 and ATCC 33591; Bacillus cereus: ATCC 14579; Enterococcus faecalis: ATCC 29212; Enterococcus faecium: ATCC BAA-2319) were used. The antimicrobial activity of OMN6 was determined by 12 serial two-fold dilutions in water of the 100-fold highest compound solution; 1 µL of each well was transferred into 96 microtiter plates (final concentration: 256–0.12 µg/mL). In most strains, same procedure was used to determine the colistin antimicrobial activity (final concentration: 32–0.015 µg/mL). Bacterial strains were sub-cultured on the agar plates and incubated for 18–24 h at 35 ± 2 °C in ambient air. Following incubation, the inoculum was prepared from isolated colonies and adjusted to 0.5 McFarland turbidity standard (1 to 2 × 10^8 colony-forming units/mL) in 0.9% saline. Bacterial suspension was then diluted 1:200 in Muller-Hinton broth (from BD; Becton, Dickinson and Company, Franklin Lakes, NJ, USA) and within 15 min 100 µL/well were dispensed. Growth-control wells and sterility-check wells (uninoculated well) were present in each plate. Plates were incubated for 18–24 h at 35 ± 2 °C in ambient air. […] The antimicrobial activity to other antibiotics on most bacterial strains was determined by Evotec using the antimicrobial sensitive test from the VITEK 2 automated microbiology system (bioMérieux SA, Marcy l'Etoile, France; data presented in Table S1), or by ATCC according to CLSI (Clinical and Laboratory Standards Institute) guidelines[30]

Bacillus cereus = settings: B. cereus ATCC 14579; CLSI broth microdilution, Muller-Hinton broth, 18–24 h, 35 ± 2 °C
Description: as §1

Staphylococcus aureus = settings: CLSI broth microdilution, Muller-Hinton broth, 18–24 h, 35 ± 2 °C
Description: as §1

Enterococcus faecium = settings: E. faecium ATCC BAA-2319 (MDR/Van-R); CLSI broth microdilution, Muller-Hinton broth, 18–24 h, 35 ± 2 °C
Description: as §1

Gram-negative bacteria = settings: summary of Table 1, regardless of resistance profile
Description: as §1

Escherichia coli = settings: CLSI broth microdilution, Muller-Hinton broth, 18–24 h, 35 ± 2 °C
Description: as §1

Enterococcus faecalis = settings: E. faecalis ATCC 29212 (Van-S); CLSI broth microdilution, Muller-Hinton broth, 18–24 h, 35 ± 2 °C
Description: as §1

[1] = tested on: Gram-positive strains (S. aureus, E. faecium, E. faecalis, B. cereus); test: MIC, broth microdilution (CLSI), summary over strains; format: cell-based; settings: E. faecalis and B. cereus, summary of Table 1
From the text: (Italy), an Evotec Company.

With `CC[C@H](C)[C@@H]1NC(=O)CNC(=O)[C@H](CC(=O)O)NC(=O)[C@H](CCCNC(=N)N)NC(=O)[C@H]([C@@H](C)CC)NC(=O)[C@H](CC(N)=O)NC(=O)[C@H](CCC(N)=O)NC(=O)CNC(=O)[C@H](C(C)C)NC(=O)[C@H](CCCCN)NC(=O)[C@H](CCC(=O)O)NC(=O)[C@H]([C@@H](C)CC)NC(=O)[C@H](CCCCN)NC(=O)[C@H](CCCCN)NC(=O)[C@H](Cc2ccccc2)NC(=O)[C@H](CC(C)C)NC(=O)[C@H](CCCCN)NC(=O)[C@H](Cc2c[nH]c3ccccc23)NC(=O)[C@H](CCCCN)NC(=O)[C@@H](NC(=O)[C@@H](N)CCSC)CSSC[C@@H](C(N)=O)NC(=O)[C@H](CCCCN)NC(=O)[C@H](C)NC(=O)[C@H]([C@@H](C)CC)NC(=O)[C@H](CCC(N)=O)NC(=O)[C@H]([C@@H](C)O)NC(=O)[C@H](C)NC(=O)[C@H](CCC(N)=O)NC(=O)CNC(=O)[C@H](C(C)C)NC(=O)[C@H](C(C)C)NC(=O)[C@H](C)NC(=O)[C@H](C(C)C)NC(=O)[C@H](C)NC(=O)[C@@H]2CCCN2C(=O)CNC(=O)[C@H](C)NC(=O)[C@H](CCCCN)NC(=O)[C@H]([C@@H](C)CC)NC1=O` [OMN6] (H-MCKWKLFKKIEKVGQNIRDGIIKAGPAVAVVGQATQIAKC-NH2; disulfide 2-40; N-terminus assumed) the “Stability after exposure to Proteinase-K” value (Proteinase-K) was “remained intact”, the “Survival rate of HEK293T cells” value (HEK293T cells; 6.25–200 µM (27–868 µg/mL), 24 h, Methylene Blue, absorbance 620 nm, all concentrations) was “not affected” and the “Therapeutic window (no toxicity to mammalian cells vs MIC value against Gram-negative bacterial species)” value (HEK293T cells; relative to MIC against Gram-negative species) was “larger than tenfold”. For the same compound, the MIC (Klebsiella pneumoniae; K. pneumoniae ATCC 43816 (S)) was 16 µg/mL (≈ 3.69 µM), the MIC (Klebsiella pneumoniae; K. pneumoniae ATCC BAA-1705 (MDR)) was 16 µg/mL (≈ 3.69 µM) and the MIC (Bacillus cereus) was greater than 256 µg/mL. The MIC (Staphylococcus aureus; S. aureus ATCC 29213 (MSSA)) was greater than 256 µg/mL, the MIC (Staphylococcus aureus; S. aureus ATCC 33591 (MRSA)) was greater than 256 µg/mL and the MIC (Staphylococcus aureus; S. aureus ATCC BAA-44 (MDR/MRSA)) was greater than 256 µg/mL. The MIC (Enterococcus faecium) was greater than 256 µg/mL, the “MIC on Gram-negative bacteria (all tested strains)” value (Gram-negative bacteria) was no more than 32 µg/mL and the MIC (Escherichia coli; E. coli ACC 01001 (mcr-1)) was 32 µg/mL (≈ 7.37 µM). For the same compound, the MIC (Escherichia coli; E. coli ATCC 25922 (S)) was 16 µg/mL (≈ 3.69 µM), the MIC (Enterococcus faecalis) was greater than 256 µg/mL and the “MIC on all tested Gram-positive strains” value [1] was greater than 256 µg/mL.
